Measurements from paper PMC7656562 (Journal of medicinal chemistry, 2019).
Read-outs that look alike come from different tables or passages of the source.

Columns and labels:
hCB1 [1] = molecular target: T1, hCB1 (Homo sapiens, UniProt P21554); experiment: cell-based
[2] = rat, 1 mg/kg PO
[3] = mouse, 0.3 mg/kg PO
hCB1 [4] = molecular target: T1, hCB1; details: calcium assay, basal signaling
[5] = tested on: alcohol-induced liver steatosis; experiment: Alcohol induced hepatic steatosis study; format: in vivo, mouse; details: female C57BL6 mice on ethanol diet; 0.03, 0.1, 0.3 mg/kg once daily oral gavage, last 2 weeks; effect at the two higher doses; p < 0.05 versus ethanol + vehicle
[6] = tested on: SafetyScreen44 Panel targets
hCB1 [7] = molecular target: T1, hCB1; details: ratio Ki hCB2/Ki hCB1

T1 sequence (P21554 whole entry): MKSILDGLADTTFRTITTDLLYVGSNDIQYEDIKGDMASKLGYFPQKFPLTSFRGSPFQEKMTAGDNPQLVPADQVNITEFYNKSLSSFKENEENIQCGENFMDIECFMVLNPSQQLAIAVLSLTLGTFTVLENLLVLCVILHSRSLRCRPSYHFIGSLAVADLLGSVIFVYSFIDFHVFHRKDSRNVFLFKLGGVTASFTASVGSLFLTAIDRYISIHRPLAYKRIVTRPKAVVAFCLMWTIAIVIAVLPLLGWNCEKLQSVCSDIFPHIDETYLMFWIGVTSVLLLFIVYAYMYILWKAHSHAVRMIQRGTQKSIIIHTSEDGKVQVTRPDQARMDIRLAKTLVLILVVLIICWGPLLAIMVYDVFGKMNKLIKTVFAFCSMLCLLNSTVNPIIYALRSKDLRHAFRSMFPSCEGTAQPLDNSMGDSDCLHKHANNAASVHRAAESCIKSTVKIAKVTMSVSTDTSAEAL

Q: For `CCCN(CC(F)(F)F)C(=O)NC1CCN(c2ncnc3c2nc(-c2ccccc2Cl)n3-c2ccc(Cl)cc2)CC1` [Compound 12, 1-{1-[8-(2-Chlorophenyl)-9-(4-chlorophenyl)-9H-purin-6-yl]-piperidin-4-yl}-3-propyl-3-(2,2,2-trifluoroethyl)urea], which Kb (hCB1 [1]) is on record?
A: Its Kb is 1.2 ± 0.6 nM.

Q: Which Kb (hCB1 [1]) does the source give for `CC(C)(C)CNC(=O)NC1CCN(c2ncnc3c2nc(-c2ccccc2Cl)n3-c2ccc(Cl)cc2)CC1` [Compound 14, 1-{1-[8-(2-Chlorophenyl)-9-(4-chlorophenyl)-9H-purin-6-yl]-piperidin-4-yl}-3-(2,2-dimethylpropyl)urea] here?
A: Its Kb is 270 ± 130 nM.

Q: With `O=C(NC1CCN(c2ncnc3c2nc(-c2ccccc2Cl)n3-c2ccc(Cl)cc2)CC1)N1CCCC1` [Compound 16, N-{1-[8-(2-Chlorophenyl)-9-(4-chlorophenyl)-9H-purin-6-yl]-piperidin-4-yl}pyrrolidine-1-carboxamide] as the compound, how does the Kb (hCB1 [1]) read?
A: The Kb was 190 ± 110 nM.

Q: With `O=C(NC1CCN(c2ncnc3c2nc(-c2ccccc2Cl)n3-c2ccc(Cl)cc2)CC1)N1CCCCC1` [Compound 17, N-{1-[8-(2-Chlorophenyl)-9-(4-chlorophenyl)-9H-purin-6-yl]-piperidin-4-yl}piperidine-1-carboxamide] as the compound, how does the Kb (hCB1 [1]) read?
A: Its Kb is 7 ± 4 nM.

Q: Which Kb (hCB1 [1]) does the source give for `O=C(NC1CCN(c2ncnc3c2nc(-c2ccccc2Cl)n3-c2ccc(Cl)cc2)CC1)N1CCOCC1` [Compound 18, N-{1-[8-(2-Chlorophenyl)-9-(4-chlorophenyl)-9H-purin-6-yl]-piperidin-4-yl}morpholine-4-carboxamide] here?
A: Its Kb is 340 ± 60 nM.

Q: For `O=C(NC1CCN(c2ncnc3c2nc(-c2ccccc2Cl)n3-c2ccc(Cl)cc2)CC1)NC1(C(F)(F)F)CCCC1` [Compound 20, 1-{1-[8-(2-Chlorophenyl)-9-(4-chlorophenyl)-9H-purin-6-yl]-piperidin-4-yl}-3-[1-(trifluoromethyl)cyclopentyl]urea], which Kb (hCB1 [1]) is on record?
A: The Kb was 12 ± 8 nM.

Q: With `O=C(NC1CCCCC1)NC1CCN(c2ncnc3c2nc(-c2ccccc2Cl)n3-c2ccc(Cl)cc2)CC1` [Compound 21, 3-{1-[8-(2-Chlorophenyl)-9-(4-chlorophenyl)-9H-purin-6-yl]-piperidin-4-yl}-1-cyclohexylurea] as the compound, how does the Kb (hCB1 [1]) read?
A: The Kb was 35 ± 10 nM.

Q: With `CC1(NC(=O)NC2CCN(c3ncnc4c3nc(-c3ccccc3Cl)n4-c3ccc(Cl)cc3)CC2)CCC(F)(F)CC1` [Compound 23, 3-{1-[8-(2-Chlorophenyl)-9-(4-chlorophenyl)-9H-purin-6-yl]-piperidin-4-yl}-1-(4,4-difluoro-1-methylcyclohexyl)urea] as the compound, how does the Kb (hCB1 [1]) read?
A: Its Kb is 0.4 ± 0.3 nM.

Q: With `O=C(NCC1CCCCC1)NC1CCN(c2ncnc3c2nc(-c2ccccc2Cl)n3-c2ccc(Cl)cc2)CC1` [Compound 25, 3-{1-[8-(2-Chlorophenyl)-9-(4-chlorophenyl)-9H-purin-6-yl]-piperidin-4-yl}-1-(cyclohexylmethyl)urea] as the compound, how does the Kb (hCB1 [1]) read?
A: Its Kb is 5 ± 3 nM.

Q: Which Kb (hCB1 [1]) does the source give for `O=C(NCC1CCC(F)(F)CC1)NC1CCN(c2ncnc3c2nc(-c2ccccc2Cl)n3-c2ccc(Cl)cc2)CC1` [Compound 26, 3-{1-[8-(2-Chlorophenyl)-9-(4-chlorophenyl)-9H-purin-6-yl]-piperidin-4-yl}-1-[(4,4-difluorocyclohexyl)methyl]urea] here?
A: Its Kb is 28 ± 15 nM.

Q: Which Kb (hCB1 [1]) does the source give for `CN1CCC(CNC(=O)NC2CCN(c3ncnc4c3nc(-c3ccccc3Cl)n4-c3ccc(Cl)cc3)CC2)CC1` [Compound 27, 3-{1-[8-(2-Chlorophenyl)-9-(4-chlorophenyl)-9H-purin-6-yl]-piperidin-4-yl}-1-[(1-methylpiperidin-4-yl)methyl]urea] here?
A: Its Kb is 25000 ± 12000 nM.

Q: For `O=C(Nc1ccccn1)NC1CCN(c2ncnc3c2nc(-c2ccccc2Cl)n3-c2ccc(Cl)cc2)CC1` [Compound 31, 3-{1-[8-(2-Chlorophenyl)-9-(4-chlorophenyl)-9H-purin-6-yl]-piperidin-4-yl}-1-(pyridin-2-yl)urea], which Kb (hCB1 [1]) is on record?
A: Its Kb is 150 ± 50 nM.

Q: Which “plasma HL” value [2] does the source give for `O=C(Nc1ccc(F)cc1F)NC1CCN(c2ncnc3c2nc(-c2ccccc2Cl)n3-c2ccc(Cl)cc2)CC1` [Compound 33, 3-{1-[8-(2-Chlorophenyl)-9-(4-chlorophenyl)-9H-purin-6-yl]-piperidin-4-yl}-1-(2,4-difluorophenyl)urea] here?
A: The value was 12 h.

Q: And the “plasma HL” value [3]?
A: Its value is 12 h.

Q: And the “time of plasma max. conc.” value [3]?
A: Its value is 1 h.

Q: What about the “neutral antagonist or inverse agonist of hCB1” value (hCB1 [4]) of the same compound?
A: The value was “inverse agonists”.

Q: For `O=C(Nc1ccc(F)c(F)c1)NC1CCN(c2ncnc3c2nc(-c2ccccc2Cl)n3-c2ccc(Cl)cc2)CC1` [Compound 34, 3-{1-[8-(2-Chlorophenyl)-9-(4-chlorophenyl)-9H-purin-6-yl]-piperidin-4-yl}-1-(3,4-difluorophenyl)urea], which Kb (hCB1 [1]) is on record?
A: Its Kb is 290 ± 80 nM.

Q: With `O=C(Nc1cccnc1C(F)(F)F)NC1CCN(c2ncnc3c2nc(-c2ccccc2Cl)n3-c2ccc(Cl)cc2)CC1` [Compound 36, 3-{1-[8-(2-Chlorophenyl)-9-(4-chlorophenyl)-9H-purin-6-yl]-piperidin-4-yl}-1-[2-(trifluoromethyl)pyridin-3-yl]urea] as the compound, how does the Kb (hCB1 [1]) read?
A: The Kb was 160 ± 60 nM.

Q: For `O=C(Nc1ccc(OC(F)F)nc1)NC1CCN(c2ncnc3c2nc(-c2ccccc2Cl)n3-c2ccc(Cl)cc2)CC1` [Compound 38, 3-{1-[8-(2-Chlorophenyl)-9-(4-chlorophenyl)-9H-purin-6-yl]-piperidin-4-yl}-1-[6-(difluoromethoxy)pyridin-3-yl]urea], which “hepatic lipid droplets (Oil Red O staining, ImageJ quantification)” value [5] is on record?
A: The value was “statistically significant reduction of liver steatosis”.

Q: And the “plasma HL” value [3]?
A: The value was 11 h.

Q: And the “neutral antagonist or inverse agonist of hCB1” value (hCB1 [4])?
A: Its value is “inverse agonists”.

Q: And the “EC50 or IC50 on all targets tested” value [6]?
A: Its value is greater than 10000 nM.

Q: For `O=C(Nc1cc(C(F)(F)F)[nH]n1)NC1CCN(c2ncnc3c2nc(-c2ccccc2Cl)n3-c2ccc(Cl)cc2)CC1` [Compound 39, 1-{1-[8-(2-Chlorophenyl)-9-(4-chlorophenyl)-9H-purin-6-yl]-piperidin-4-yl}-3-[5-(trifluoromethyl)-1H-pyrazol-3-yl]urea], which Kb (hCB1 [1]) is on record?
A: The Kb was 270 ± 60 nM.

Q: Which Kb (hCB1 [1]) does the source give for `Cn1cc(NC(=O)NC2CCN(c3ncnc4c3nc(-c3ccccc3Cl)n4-c3ccc(Cl)cc3)CC2)cn1` [Compound 40, 1-{1-[8-(2-Chlorophenyl)-9-(4-chlorophenyl)-9H-purin-6-yl]-piperidin-4-yl}-3-(1-methyl-1H-pyrazol-4-yl)urea] here?
A: Its Kb is 28000 ± 8000 nM.

Q: With `O=C(NCC1CCCCC1)NC1CCN(c2ncnc3c2nc(-c2ccccc2Cl)n3-c2ccc(C(F)(F)F)nc2)CC1` [Compound 42, 3-{1-[8-(2-Chlorophenyl)-9-[6-(trifluoromethyl)pyridin-3-yl]-9H-purin-6-yl]piperidin-4-yl}-1-(cyclohexylmethyl)urea] as the compound, how does the Kb (hCB1 [1]) read?
A: Its Kb is 76 ± 34 nM.

Q: For `O=C(Nc1ccccc1F)NC1CCN(c2ncnc3c2nc(-c2ccccc2Cl)n3-c2ccc(F)cc2)CC1` [Compound 44, 3-{1-[8-(2-Chlorophenyl)-9-(4-fluorophenyl)-9H-purin-6-yl]-piperidin-4-yl}-1-(2-fluorophenyl)urea], which Kb (hCB1 [1]) is on record?
A: The Kb was 3800 ± 1500 nM.

Q: With `CC1(NC(=O)NC2CCCCC2)CCN(c2ncnc3c2nc(-c2ccccc2Cl)n3-c2ccc(Cl)cc2)CC1` [Compound 47, 3-{1-[8-(2-Chlorophenyl)-9-(4-chlorophenyl)-9H-purin-6-yl]-4-methylpiperidin-4-yl}-1-cyclohexylurea] as the compound, how does the “Selectivity Ki CB2/CB1” value (hCB1 [7]) read?
A: Its value is greater than 769.

Q: And the Kb (hCB1 [1])?
A: The Kb was 7 ± 5 nM.

Q: For `CC1(NC(=O)NC2CCC(F)(F)CC2)CCN(c2ncnc3c2nc(-c2ccccc2Cl)n3-c2ccc(Cl)cc2)CC1` [Compound 48, 3-{1-[8-(2-Chlorophenyl)-9-(4-chlorophenyl)-9H-purin-6-yl]-4-methylpiperidin-4-yl}-1-(4,4-difluorocyclohexyl)urea], which Kb (hCB1 [1]) is on record?
A: The Kb was 2 ± 1 nM.

Q: For `CC1(NC(=O)NCc2ccccc2F)CCN(c2ncnc3c2nc(-c2ccccc2Cl)n3-c2ccc(Cl)cc2)CC1` [Compound 49, 3-{1-[8-(2-Chlorophenyl)-9-(4-chlorophenyl)-9H-purin-6-yl]-4-methylpiperidin-4-yl}-1-[(2-fluorophenyl)methyl]urea], which Kb (hCB1 [1]) is on record?
A: The Kb was 14 ± 7 nM.

Q: For `CC1(NC(=O)Nc2ccccc2F)CCN(c2ncnc3c2nc(-c2ccccc2Cl)n3-c2ccc(Cl)cc2)CC1` [Compound 50, 3-{1-[8-(2-Chlorophenyl)-9-(4-chlorophenyl)-9H-purin-6-yl]-4-methylpiperidin-4-yl}-1-(2-fluorophenyl)urea], which Kb (hCB1 [1]) is on record?
A: Its Kb is 1.6 ± 1.1 nM.

Q: Which Kb (hCB1 [1]) does the source give for `CC1(NC(=O)Nc2ccc(F)cc2F)CCN(c2ncnc3c2nc(-c2ccccc2Cl)n3-c2ccc(Cl)cc2)CC1` [Compound 51, 3-{1-[8-(2-Chlorophenyl)-9-(4-chlorophenyl)-9H-purin-6-yl]-4-methylpiperidin-4-yl}-1-(2,4-difluorophenyl)urea] here?
A: Its Kb is 9 ± 4 nM.

Q: With `CC1(NC(=O)Nc2ccc(OC(F)F)nc2)CCN(c2ncnc3c2nc(-c2ccccc2Cl)n3-c2ccc(Cl)cc2)CC1` [Compound 52, 3-{1-[8-(2-Chlorophenyl)-9-(4-chlorophenyl)-9H-purin-6-yl]-4-methylpiperidin-4-yl}-1-[6-(difluoromethoxy)pyridin-3-yl]urea] as the compound, how does the Kb (hCB1 [1]) read?
A: Its Kb is 46 ± 23 nM.

Q: For `CC1(NS(=O)(=O)NC2CCCCC2)CCN(c2ncnc3c2nc(-c2ccccc2Cl)n3-c2ccc(Cl)cc2)CC1` [Compound 54, N-Cyclohexyl({1-[8-(2-chlorophenyl)-9-(4-chlorophenyl)-9H-purin-6-yl]-4-methylpiperidin-4-yl}amino)sulfonamide], which Kb (hCB1 [1]) is on record?
A: The Kb was 17 ± 3 nM.
